Test results from ChEMBL document CHEMBL1153812, “Hydrolytic cleavage of DNA by urea-bridged macrocyclic polyamines” (Eur J Med Chem, 2009).
Calls of active or inactive are those of the source. The calls are words filed in the database; no cut-off is given here.

How the values were obtained:
Format in all cases: nucleic-acid assay
Nucleic Acid [1] = experiment: Induction of supercoiled Escherichia coli pUC19 DNA cleavage assessed as formation of open-circular DNA at 357 uM after 36 hrs by agarose gel electrophoresis
Nucleic Acid [2] = experiment: Binding affinity to calf thymus duplex DNA assessed as thermal melting temperature at 0.11 mM by UV-visible spectrophotometry; details: Bos taurus
Nucleic Acid [3] = experiment: Binding affinity to calf thymus duplex DNA assessed as change in viscosity of DNA at 20 mM by viscometric analysis; details: Bos taurus
Nucleic Acid [4] = experiment: Induction of supercoiled Escherichia coli pUC19 DNA cleavage assessed as formation of open-circular DNA at 357 uM after 36 hrs by agarose gel electrophoresis in presence of […]
Nucleic Acid [5] = experiment: Induction of supercoiled Escherichia coli pUC19 DNA cleavage assessed as formation of open-circular DNA at 286 uM after 36 hrs by agarose gel electrophoresis
Nucleic Acid [6] = experiment: Induction of supercoiled Escherichia coli pUC19 DNA cleavage assessed as formation of open-circular DNA at 143 uM after 36 hrs by agarose gel electrophoresis
Nucleic Acid [7] = experiment: Induction of supercoiled Escherichia coli pUC19 DNA cleavage assessed as formation of open-circular DNA at 0.285 mM after 36 hrs by TBARS method in presence of hydroxy radical
Nucleic Acid [8] = experiment: Induction of supercoiled Escherichia coli pUC19 DNA cleavage assessed as formation of open-circular DNA at 357 uM after 36 hrs by agarose gel electrophoresis in presence of hydroxyl radical scavenger t-BuOH
Nucleic Acid [9] = experiment: Induction of supercoiled Escherichia coli pUC19 DNA cleavage assessed as formation of open-circular DNA at 286 uM by agarose gel electrophoresis; details: TDE = time-dependent effect
Nucleic Acid [10] = experiment: Induction of supercoiled Escherichia coli pUC19 DNA cleavage assessed as formation of open-circular DNA at 357 uM after 36 hrs by agarose gel electrophoresis in presence of singlet oxygen scavenger NaN3
Nucleic Acid [11] = experiment: Induction of supercoiled Escherichia coli pUC19 DNA cleavage assessed as formation of open-circular DNA at 357 uM after 32 hrs by agarose gel electrophoresis
Nucleic Acid [12] = experiment: Induction of supercoiled Escherichia coli pUC19 DNA cleavage assessed as formation of open-circular DNA at 71 uM after 36 hrs by agarose gel electrophoresis
Nucleic Acid [13] = experiment: Induction of supercoiled Escherichia coli pUC19 DNA cleavage assessed as formation of open-circular DNA at 357 uM after 36 hrs by agarose gel electrophoresis in presence of hydroxyl radical scavenger DMSO
Nucleic Acid [14] = experiment: Induction of supercoiled Escherichia coli pUC19 DNA cleavage assessed as formation of open-circular DNA at 214 uM after 36 hrs by agarose gel electrophoresis

Activity (Nucleic Acid [1])	Tm (Nucleic Acid [2]) [°C]	Activity (Nucleic Acid [3])	Activity (Nucleic Acid [4])	Activity (Nucleic Acid [5]) [%]	Activity (Nucleic Acid [6]) [%]	Activity (Nucleic Acid [7])	Activity (Nucleic Acid [8])	Activity (Nucleic Acid [9])	Activity (Nucleic Acid [10])	Activity (Nucleic Acid [11]) [%]	Activity (Nucleic Acid [12]) [%]	Activity (Nucleic Acid [13])	Activity (Nucleic Acid [14]) [%]	Structure (SMILES)
Active	77.6	Active												CCNC(=O)NC(C)C(=O)N1CCNCCNCCNCC1 (stereo not given)
Active	76.6	Active												COC(=O)C(C)NC(=O)NC(C)C(=O)OC (stereo not given)
97%	75.7	Active	Active	89	59	Active	Active	tde	Active	97	29	Active	72	CC(NC(=O)NC(C)C(=O)N1CCNCCNCCNCC1)C(=O)N1CCNCCNCCNCC1 (stereo not given)
